Legend:
GILZ gene = GILZ gene assay (qPCR, HUT78 / 786-O cells); type: cell-based; settings: for EC50: read-out: GILZ EC50
Experimental: GILZ gene assays were conducted as follows. HUT78 cells were cultured in IMEM plus 20% heat inactivated FBS and cell density was maintained between 0.1 to 1.2 million/mL. 786-O cells were cultured in RPMI plus 10% heat inactivated FBS. Actively growing cells were harvested and resuspended in HBSS with 2% FBS at 1.1 million cells per mL then dispensed to 384-well V-bottom plates at 45 μL per well. Serially diluted ADC solution was added to the cell plate (5 μL per well) and mixed for 2 min. Cells were then cultured at 37° C., at 5% CO2 for a designated time before supernatant was removed. Cells were harvested in lysis buffer from the Cells-to-Ct kit (40 μL, Life Technologies, 4391851C) following the supplier's protocol and mixed for 10 min followed by addition of 5 μL per well of stop solution from the kit. cDNA was synthesized with a reverse transcription kit (Life Technologies, 4391852C) follow by qPCR using the TaqMan gene expression master mix (Life Technologies, 4369016) with GILZ gene assay (Life Technologies, Hs00608272_m1) and GAPDH assay (Hs2758991_g1) in a duplex format with 3-4 technical replicates.

MDCKII cells = assay: Apparent permeability in MDCKII cells; type: in vitro ADME; settings: 1 μM, t=3 hr, average of A to B and B to A Papp
Experimental: Determination of apparent permeability was as follows. MDCKII cells (kindly provided by the Netherlands Cancer Institute, under a licensing agreement) were seeded on to 96-well transwell culture plates (Millipore Corp, Billerica, Mass.) and used in experiments after five days in culture. […] Substrate solution (150 μL) was added to either the apical (A) or the basolateral (B) compartment of the culture plate, and buffer (150 μL; HBSS, 10 mM HEPES, pH 7.4) with 10 μM cyclosporine A was added to the compartment opposite to that containing the substrate. At t=3 hr, 50 μL samples were removed from both sides of monolayers dosed with test compound and placed in 96 well plates, 50 μL internal standard (1 μM labetolol) and 100 μL HBSS was added to the samples. Samples were analyzed by LC/MS/MS using an Applied Biosystems SCIEX API 5000 triple quadruple mass spectrometer (Concord, ON, Canada) with a TurbolonSpray ion source in the positive ion mode. A Thermo Scientific Transcend LX-2 system (Franklin, Mass.) was coupled to the API 5000 with a flow rate of 800 μL/min to direct sample into the mass spectrometer.
Papp was expressed as 10^−6 cm/s.

glucocorticoid receptor = glucocorticoid receptor (Homo sapiens (Human), UniProt P04150); assay: PolarScreen Glucocorticoid Receptor Competitor Assay (GR binding); settings: fluormone GS red, GR full length protein; read-out: GR Bind IC50
Sequence of glucocorticoid receptor (P04150 whole entry): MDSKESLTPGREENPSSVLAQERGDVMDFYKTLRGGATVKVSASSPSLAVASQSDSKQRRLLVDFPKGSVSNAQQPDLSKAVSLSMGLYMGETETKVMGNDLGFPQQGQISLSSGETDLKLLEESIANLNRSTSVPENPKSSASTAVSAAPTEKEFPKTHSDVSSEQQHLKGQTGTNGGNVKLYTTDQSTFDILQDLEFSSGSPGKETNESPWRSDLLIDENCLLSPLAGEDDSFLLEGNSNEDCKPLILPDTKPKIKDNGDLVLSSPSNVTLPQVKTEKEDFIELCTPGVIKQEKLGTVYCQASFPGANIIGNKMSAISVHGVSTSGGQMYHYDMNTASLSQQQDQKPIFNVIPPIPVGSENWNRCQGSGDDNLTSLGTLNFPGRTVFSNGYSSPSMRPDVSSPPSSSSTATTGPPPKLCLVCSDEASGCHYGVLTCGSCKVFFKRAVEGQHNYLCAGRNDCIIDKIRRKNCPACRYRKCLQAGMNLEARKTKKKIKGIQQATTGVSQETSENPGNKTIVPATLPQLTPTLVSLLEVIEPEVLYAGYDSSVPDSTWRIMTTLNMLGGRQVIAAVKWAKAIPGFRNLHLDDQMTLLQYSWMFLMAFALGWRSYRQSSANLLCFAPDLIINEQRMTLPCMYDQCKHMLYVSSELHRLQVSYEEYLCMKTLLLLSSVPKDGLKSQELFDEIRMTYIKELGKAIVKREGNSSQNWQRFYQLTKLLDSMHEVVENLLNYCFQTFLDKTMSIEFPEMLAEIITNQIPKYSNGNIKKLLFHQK
Experimental: The potency of binding to glucocorticoid receptor by small molecule compounds was measured with the PolarScreen™ Glucocorticoid Receptor Competitor Assay Kit, Red (Life Technology, Catalog #A15898) according to the procedure in the kit. In brief, after compounds were diluted and transferred into assay plates, the fluormone GS red and GR full length protein were subsequently added into the assay plates, along with the positive and negative controls. The samples were mixed on a shaker for 1 minute and then the plates were incubated at room temperature for 2-4 hours with minimal light exposure. The plates were read with an Envision and the relative fluorescent signals were calculated. The data were plotted in GraphPad Prism and the EC50 values were calculated with non-linear regression curve fit of the data in GraphPad Prism.

ZBTB16 mRNA = assay: Up-regulation of ZBTB16 mRNA in primary human B cells; type: cell-based; settings: free payload
Experimental: The carrier solution for all ADCs and naked antibodies was 50 mM histidine pH 6.0, 100 mM NaCl and 5% trehelose. To assure consistency across experiments, ADCs were thawed on ice, dispensed to small aliquots, frozen to −80° C., and those aliquots were then used for experiments with unused material discarded at the end of the day. For all in vitro studies in this report, none of the read outs were measurably different in the presence or absence of the carrier solution. Nevertheless, the final concentration of antibody carrier solution was maintained constant at 1% v/v by serially diluting antibody solution prior to addition to the assay mixture and adding carrier solution to control wells.
For the studies of ADCs bearing reduced permeability payloads frozen human CD19+ B cells purchased from Precision Biosciences (catalog #84400, donor #13108) were thawed and re-suspended in RPMI1640 plus 10% heat-inactivated FBS (cell culture medium) at 1 million cells/mL. […] B cells were bulk treated in a 96-well block and subsequently dispensed to 96 well plates (100 μL and […] cells per well) and incubated at 37° C., 5% CO2 for 18 or 40 hr. Control wells containing equal percentages of DMSO (0.1%) and ADC buffer (1%) as sample wells were included. Cells were transferred to a 96 well v-bottom plate and spun at 500×g for 5 min. Medium was removed and cells were lysed in 150 μL RLT buffer containing beta-mercaptoethanol. RNA was isolated (RNeasy 96 kit, Qiagen, Cat #74181) and cDNA was synthesized (iScript cDNA Synthesis Kit, BioRad, Cat #170-8891) according to the supplier's protocol. Quantitative PCR was performed on Applied Biosystem's 7900 HT Real-Time PCR System to measure expression of ZBTB16 (Life Technologies, Hs00957433_m1) and GAPDH (Life Technologies, Hs02758991_g1) in duplex format.
The ΔΔCt method was used to calculate fold change of expression of ZBTB16 relative to control sample, using 3 replicates per treatment condition. For free cell impermeable compounds, B cells were seeded at 100,000 cells/well in 90 μL in a 96-well flat bottom plate. Three fold serial dilutions were performed in DMSO, subsequent intermediate 10× stocks were made in tissue-culture medium and then added to the cell plate (10 μL/well). Cells were incubated at 37° C., 5% CO2 for 18 hr, harvested and processed for PCR as described above. EC50 curves were calculated using Graph Pad Prism 6 software using nonlinear fit (agonist) vs. response-variable slope (four parameters) calculation.
Potency and maximum activity of reduced permeability glucocorticoids (free payload) and the corresponding anti-CD74-drug conjugates on up-regulation of ZBTB16 mRNA levels in primary human B cells in vitro.

Row | Compound | GILZ Max (GILZ gene; concentration not given) [%] | EC50 (GILZ gene) [nM] | MDCK Permeability (cm × 10−6/sec) (MDCKII cells) | GILZ Max (GILZ gene; at 100 nM) | IC50 (glucocorticoid receptor) [nM] | GILZ Max (GILZ gene; at 10 uM) | EC50 (ZBTB16 mRNA) [nM]
1 | CCCC1O[C@@H]2C[C@H]3[C@@H]4CCC5=CC(=O)C=C[C@]5(C)[C@H]4[C@@H](O)C[C@]3(C)[C@]2(C(=O)CO)O1 (stereo partly drawn) [Budesonide, reference compound] | 100 | 1 | 31.6 | – | – | – | –
2 | CCC(=O)O[C@]1(C(=O)SCCCCP(=O)(O)O)[C@H](C)C[C@H]2[C@@H]3C[C@H](F)C4=CC(=O)C=C[C@]4(C)[C@@]3(F)[C@@H](O)C[C@@]21C [Compound 4] | – | > 100 | 1.72 | <10% (at | 0.71 | – | –
3 | C[C@@H]1C[C@H]2[C@@H]3C[C@H](F)C4=CC(=O)C=C[C@]4(C)[C@@]3(F)[C@@H](O)C[C@]2(C)[C@@]1(O)C(=O)SCCCCP(=O)(O)O [Compound 5] | – | > 10000 | 1.84 | 24% (at | 160 | – | –
4 | CCC(=O)O[C@]1(C(=O)SCCOCCOCCP(=O)(O)O)[C@H](C)C[C@H]2[C@@H]3C[C@H](F)C4=CC(=O)C=C[C@]4(C)[C@@]3(F)[C@@H](O)C[C@@]21C [Compound 6] | – | > 10000 | – | – | 0.32 | 40% (at | –
5 | CCC(=O)O[C@]1(C(=O)SCCCCCCP(=O)(O)O)[C@H](C)C[C@H]2[C@@H]3C[C@H](F)C4=CC(=O)C=C[C@]4(C)[C@@]3(F)[C@@H](O)C[C@@]21C [Compound 7] | – | 6450 | 2 | – | 0.45 | 64% (at | –
6 | C[C@@H]1C[C@H]2[C@@H]3C[C@H](F)C4=CC(=O)C=C[C@]4(C)[C@@]3(F)[C@@H](O)C[C@]2(C)[C@@]1(O)C(=O)SCCCCCCCCCCP(=O)(O)O [Compound 8] | – | 970 | 2.8 | – | 0.25 | 66% (at | –
7 | C[C@@H]1C[C@H]2[C@@H]3C[C@H](F)C4=CC(=O)C=C[C@]4(C)[C@@]3(F)[C@@H](O)C[C@]2(C)[C@@]1(O)C(=O)SCCOCCOCCP(=O)(O)O [Compound 9] | – | > 10000 | – | – | 1.67 | 14.5% | –
8 | C[C@@H]1C[C@H]2[C@@H]3C[C@H](F)C4=CC(=O)C=C[C@]4(C)[C@@]3(F)[C@@H](O)C[C@]2(C)[C@@]1(O)C(=O)SCCCCCCP(=O)(O)O [Compound 10] | – | > 10000 | 1.9 | – | 1.99 | 17.3% | –
9 | C[C@@H]1C[C@H]2[C@@H]3C[C@H](F)C4=CC(=O)C=C[C@]4(C)[C@@]3(F)[C@@H](O)C[C@]2(C)[C@@]1(O)C(=O)SCCP(=O)(O)O [Compound 11] | – | 2860 | – | – | – | 81% (at | –
10 | CCC(=O)O[C@]1(C(=O)SCCP(=O)(O)O)[C@H](C)C[C@H]2[C@@H]3C[C@H](F)C4=CC(=O)C=C[C@]4(C)[C@@]3(F)[C@@H](O)C[C@@]21C [Compound 12] | – | 6780 | – | – | 162 | 36% (at | –
11 | C[C@@H]1C[C@H]2[C@@H]3C[C@H](F)C4=CC(=O)C=C[C@]4(C)[C@@]3(F)[C@@H](O)C[C@]2(C)[C@@]1(O)C(=O)SCCCP(=O)(O)O [Compound 13] | – | > 10000 | – | – | 1220 | 24% (at | –
12 | CCC(=O)O[C@]1(C(=O)SCCCP(=O)(O)O)[C@H](C)C[C@H]2[C@@H]3C[C@H](F)C4=CC(=O)C=C[C@]4(C)[C@@]3(F)[C@@H](O)C[C@@]21C [Compound 14] | – | > 10000 | – | – | 18.1 | 15% (at | –
13 | C[C@@H]1C[C@H]2[C@@H]3C[C@H](F)C4=CC(=O)C=C[C@]4(C)[C@@]3(F)[C@@H](O)C[C@]2(C)[C@@]1(OC(=O)CCCCCP(=O)(O)O)C(=O)SCF [Compound 19, (6-(((6S,8S,9R,10S,11S,13S,14S,16R,17R)-6,9-difluoro-17-(((fluoromethyl)thio)carbonyl)-11-hydroxy-10,13,16-trimethyl-3-oxo-6,7,8,9,10,11,12,13,14,15,16,17-dodecahydro-3H-cyclopenta[a]phenanthren-17-yl)oxy)-6-oxohexyl)phosphonic acid] | – | 1290 | – | – | 0.14 | 88% (at | –
14 | CCCC1O[C@@H]2C[C@H]3[C@@H]4CCC5=Cc6c(cnn6-c6cccc(OCCCCP(=O)(O)O)c6)C[C@]5(C)[C@H]4[C@@H](O)C[C@]3(C)[C@]2(C(=O)CO)O1 (stereo partly drawn) [Compound 28] | – | 1270 | 1.6 | – | 4.1 | 101% (at | –
15 | CCCC1O[C@@H]2C[C@H]3[C@@H]4CCC5=Cc6c(cnn6-c6cccc(OCCCCCCCCCP(=O)(O)O)c6)C[C@]5(C)[C@H]4[C@@H](O)C[C@]3(C)[C@]2(C(=O)CO)O1 (stereo partly drawn) [Compound 29] | – | 558 | – | – | 24.2 | 96% (at | –
16 | CCCC1O[C@@H]2C[C@H]3[C@@H]4CCC5=Cc6c(cnn6-c6ccc(OCCCCP(=O)(O)O)cc6)C[C@]5(C)[C@H]4[C@@H](O)C[C@]3(C)[C@]2(C(=O)CO)O1 (stereo partly drawn) [Compound 30] | – | 3010 | 1.9 | – | 2.4 | 61% (at | –
17 | CCCC1O[C@@H]2C[C@H]3[C@@H]4CCC5=Cc6c(cnn6-c6ccc(OCCCCCCP(=O)(O)O)cc6)C[C@]5(C)[C@H]4[C@@H](O)C[C@]3(C)[C@]2(C(=O)CO)O1 (stereo partly drawn) [Compound 31] | – | 4180 | 4.1 | – | 3.9 | 47% (at | –
18 | CCCC1O[C@@H]2C[C@H]3[C@@H]4CCC5=Cc6c(cnn6-c6ccc(OCCCCCCCCCP(=O)(O)O)cc6)C[C@]5(C)[C@H]4[C@@H](O)C[C@]3(C)[C@]2(C(=O)CO)O1 (stereo partly drawn) [Compound 32] | – | 4150 | – | – | 115 | 86% (at | –
19 | C[C@@H]1C[C@H]2[C@@H]3CCC4=CC(=O)C=C[C@]4(C)[C@@]3(F)[C@@H](O)C[C@]2(C)[C@@]1(O)C(=O)CO [Dexamethasone, reference compound] | 100 | 3.7 | – | – | – | – | –
20 | CCC(=O)O[C@]1(C(=O)SCF)[C@H](C)C[C@H]2[C@@H]3C[C@H](F)C4=CC(=O)C=C[C@]4(C)[C@@]3(F)[C@@H](O)C[C@@]21C [Fluticasone Propionate, reference compound] | 100 | 0.2 | 21.5 | – | – | – | 0.019
21 | (6-(3-((3aR,4aS,4bS,11aR,11bS,12S,13aS,13bS)-12-hydroxy-13b-(2-hydroxyacetyl)-11a,13a-dimethyl-2-propyl-4,4a,5,6,11,11a,11b,12,13,13a-decahydro-[1,3]dioxolo[4″,5″:3′,4′]cyclopenta[1′,2′:5,6]naphtho[1,2-f]indazol-8 (3aH,4bH,13bH)-yl)phenoxy)hexyl)phosphonic acid [Compound 27] | – | 2760 | – | – | – | 80% (at | –

Reference: US10869929B2, “Phosphonate linkers and their use to facilitate cellular retention of compounds” (priority 2016, dated 2020)
